Measured values published in ChEMBL document CHEMBL1140627, “Adaptive neuro-fuzzy inference system (ANFIS): a new approach to predictive modeling in QSAR applications: a study of neuro-fuzzy modeling of PCP-based NMDA receptor antagonists” (Bioorg Med Chem, 2007).

Molecular target: Glutamate NMDA receptor
Test: Displacement of [3H]TCP from NMDA receptor in rat brain membrane
Format: cell membranes

Row | Structure (SMILES) | Ki
1 | NC1(c2ccc(F)cc2)CCCCC1 | 5130 nM
2 | NC1(c2cccc(O)c2)CCCCC1 | 225 nM
3 | c1ccc(C2(N3CCCCC3)CCCCC2)cc1 [PHENCYCLIDINE] | 70 nM
